Test results reported in PMC7432901, “Investigation of Strand-Selective Interaction of SNA-Modified siRNA with AGO2-MID” (International Journal of Molecular Sciences, 2020).

Biological target: T1, AGO2-MID (Homo sapiens, UniProt Q9UKV8)
T1 construct: MID domain, residues 432-578; expressed in E. coli BL21(DE3)pLysS as His6-SUMO-TEV fusion (pCold I), His6-SUMO cleaved with proTEV
Experiment: isothermal titration calorimetry
Type: binding
Conditions: read-out: Ka (× 10^3 M^-1) (converted)
Text: isothermal titration calorimetry on AGO2-MID

T1 sequence (Q9UKV8 432-578): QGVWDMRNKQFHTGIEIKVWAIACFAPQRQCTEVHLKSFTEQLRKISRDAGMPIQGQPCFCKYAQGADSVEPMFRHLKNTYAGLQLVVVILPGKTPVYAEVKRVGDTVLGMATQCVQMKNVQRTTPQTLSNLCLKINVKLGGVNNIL

Row | Kd [µM] | Compound
1 | 4.35 | Nc1ncnc2c1ncn2[C@@H]1O[C@H](COP(=O)(O)O[C@H]2[C@@H](O)[C@H](n3cnc4c(N)ncnc43)O[C@@H]2COP(=O)(O)O)[C@@H](O)[C@H]1O [p-rArA]
2 | 169 | Nc1ncnc2c1ncn2CC(=O)N[C@H](CO)COP(=O)(O)OC[C@H](COP(=O)(O)O)NC(=O)Cn1cnc2c(N)ncnc21 [p-sAsA]
3 | 139 | Nc1ncnc2c1ncn2CC(=O)N[C@@H](COP(=O)(O)O)COP(=O)(O)OC[C@H]1O[C@@H](n2cnc3c(N)ncnc32)[C@H](O)[C@@H]1O [p-sArA]
4 | 169 | Nc1ncnc2c1ncn2[C@@H]1O[C@H](COP(=O)(O)O)[C@@H](O)[C@H]1O [AMP]
